One experiment has as its system Panc-1 cells. The experiment can be described thus: Time lapse microscope images of pancreatic cancer cells after drug. It is filed as cell-based, human. The conditions noted are these: 10 μM BCN057. Here is the method: FIG. 2A is a group of images showing pancreatic cancer cell growth after treatment with 10 μM BCN057 at time 0, 15, 30, 60, 120 and 240 minutes.
Further, these doses span the concentrations found in plasma during efficacy studies in rodents. Subsequently, microscope images appeared to show cell blebbing and fragmentation shortly after application of BCN057 indicating possible apoptosis. […] Blebbing and cell fragmentation was noted within 20 min of incubation with drug (as shown with the arrows). Cell fragmentation was seen between 20-30 minutes after exposure to the drug.

The subject of experiment [1] is PD-1 expression on human T-lymphocytes. The experiment can be described thus: Western blot of PD-1 on T-lymphocytes co-cultured with Panc-1 cells. It is filed as cell-based. The following applies: co-culture with Panc-1, 10 μM, sustained over 12 hours. As for the experimental part:
Cell lines and cell culture: Panc-1 cells were cultured in DMEM medium supplemented with 10% Fetal Bovine Serum and maintained at 37° C.5% CO2. Human Peripheral Blood Pan-T Cells were cultured in serum free T cells expansion media with 10 ng/ml of rhIL-2, T-cell activator and expanded as per the manufacturer instructions. Panc-1 cells and T-Cells were grown and expanded separately in T75 flasks. For co-culture experiments with Panc-1 cell, 2.5 million T-cells per well were plated in the well using a 6 well plate. 2.5 million Panc-1 Cells were plated in the thinsert which was placed into the well of the 6 well plate in order to have the cells physically separated but share media. The cells were incubated for 24 hours at 37° C., 5% CO2. At 24 hours the media was replaced with media containing vehicle, or 10 uM BCN057 and were incubated for the following timepoints: 1 hr, 6 hr, 12 hr, 24 hrs. The Panc-1 cells were removed by gently scraping the cells from the thinsert.
(§1) Western Blot: Cells were harvested and lysed in cell lysis buffer on ice for 15 minutes and the lysate was centrifuged at 13,000 rpm at 4° C. for 10 minutes. The supernatant was transferred into a new tube for BCA protein quantification assay (Thermo Fisher Scientific) and the samples were normalized. 3× loading buffer (Cell Signaling) was added the protein sample and boiled for 5 minutes. The samples were used for SDS-PAGE analysis and transferred to nitrocellulose membrane. The membrane was blocked with 5% BSA at room temperature for 1 hour and incubated with primary antibody at 4° C. overnight. The membrane was washed with 1×TBST 5 minutes for 3 times and incubated with horseradish peroxidase-conjugated secondary antibody for 1 hour at room temperature. The protein was visualized by SuperSignal West Pico Stable Peroxide Solution (Thermo Fisher Scientific). The blot was visualized by chemiluminescence using a BioRad Versadoc Imaging System.
BCN057 and Immune Checkpoint blockade: An emerging method of treatment for many forms of cancer, including PDAC, is immune checkpoint inhibitors. […]
Background: Immunoblotting shows a protein as a band on a membrane.

For a further experiment, the system named is c-Jun. The experiment can be described thus: Western blot of Phospho-c-Jun (T-91/93) in Panc-1 cells. It is filed as cell-based, human. As for the experimental part:
as §1, with “System. Phosphorylation at T 91/93 in c-Jun was measured as a function of total c-Jun. Significant phosphorylation at T 91/93 was observed which has been reported to be associated with the activation of c-Jun's pro-apoptotic activity. […] FIG. 4A is a western blot of Phospho-c-Jun (T-91/93). […] Phosphorylation of c-Jun at T-91/93 is known to induce apoptosis. Total c-Jun protein level was unchanged. […]” for “System.”

The subject of experiment [2] is Bax, BCl-2, Akt-1 and Caspase-3 in Panc-1 cells. The experiment can be described thus: qPCR of pro apoptosis and anti-apoptosis markers. The experiment is classed as cell-based, human. The conditions noted are these: 1-hour post treatment. The source says:
FIG. 2C is a histogram of the results of qPCR analysis of pro apoptosis and anti-apoptosis markers in Panc-1 cells.
On the technique in general: Real-time PCR tracks product formation cycle by cycle.

As for `COc1ccc2cc(-c3nc4ccc(C)cn4c3NCc3ccco3)c(=O)[nH]c2c1` [BCN057, 3-[(Furan-2-ylmethyl)-amino]-2-(7-methoxy-2-oxo-1,2-dihydro-quinolin-3-yl)-6-methyl-imidazo[1,2-a]pyridin-1-ium], in the experiment with Panc-1 cells, the “Time at which cell fragmentation was seen after exposure” value was 20 to 30 min; the “Time to blebbing and cell fragmentation” value is on record as no more than 20 min. Moreover, the “PD-1 expression on human T-lymphocytes” value in experiment [1] is given as “decreased significantly within the first hour”. In the experiment on c-Jun (KRAS mutant Panc-1 cells, within 20 minutes after drug treatment), the “c-Jun phosphorylation at T-91/93” value was “significantly increases JNK dependent phosphorylation”. In the experiment on c-Jun (Panc-1 cells), the “Total c-Jun protein level” value is given as “unchanged”. Also, in experiment [2], the Akt-1 expression entry was “did not affect”, the Bax gene expression result was “induces expression”, the Bcl2 gene expression result is listed as “inhibited” and the Caspase-3 expression entry is reported as “did not affect”.

For the origin of these results see US20240376098A1, “METHODS OF TREATMENT USING BCN057, BCN077 AND ANALOGS” (BCN Biosciences L.L.C., priority 2021, published 2024).
